Here are results for three compounds from ChEMBL document CHEMBL1255353, “Antistreptococcal activity of AR-709 compared to that of other agents” (2008).

What all share (assay type): functional
Test [1] concerns Streptococcus pneumoniae. Description: Antimicrobial activity against penicillin-intermediate Streptococcus pneumoniae by agar dilution method. (In general: In agar dilution the substance is mixed into plates at graded concentrations.)
Test [2] relates to Streptococcus sp. 'group A'. The test can be described thus: Antimicrobial activity against macrolide-resistant Streptococcus sp. 'group A' by agar dilution method.
Test [3] deals with Streptococcus pneumoniae. The test can be described thus: Antimicrobial activity against penicillin-resistant Streptococcus pneumoniae by agar dilution method.
Test [4] relates to Streptococcus sp. 'group A'. The test can be described thus: Antimicrobial activity against macrolide-susceptible Streptococcus sp. 'group A' by agar dilution method.
Test [5] deals with Streptococcus pneumoniae. The test can be described thus: Antimicrobial activity against macrolide-resistant Streptococcus pneumoniae by agar dilution method.
Test [6] has as its system Streptococcus pneumoniae. Description: Antimicrobial activity against macrolide-susceptible Streptococcus pneumoniae by agar dilution method.
The test system of test [7] is Streptococcus pneumoniae. The test can be described thus: Antimicrobial activity against quinolone-susceptible Streptococcus pneumoniae by agar dilution method.
The test system of test [8] is Streptococcus pneumoniae. Description: Antimicrobial activity against trimethoprim-sulfamethoxazole-resistant Streptococcus pneumoniae by agar dilution method.
The subject of test [9] is Streptococcus pneumoniae. Description: Antimicrobial activity against Streptococcus pneumoniae assessed as time required to show antibiotic effect.
The subject of test [10] is Streptococcus pneumoniae. The test can be described thus: Antimicrobial activity against quinolone-resistant Streptococcus pneumoniae by agar dilution method.
The test system of test [11] is Streptococcus pneumoniae. Description: Antimicrobial activity against trimethoprim-sulfamethoxazole-susceptible Streptococcus pneumoniae by agar dilution method.
The subject of test [12] is Streptococcus pneumoniae. The test can be described thus: Antimicrobial activity against penicillin-susceptible Streptococcus pneumoniae by agar dilution method.
In test [13] the test system is Streptococcus sp. 'group A'. Description: Antimicrobial activity against macrolide-susceptible Streptococcus sp. 'group A' by agar dilution method in presence of […] clavulanic acid.
In test [14] the test system is Streptococcus pneumoniae. The test can be described thus: Antimicrobial activity against macrolide-resistant Streptococcus pneumoniae by agar dilution method in presence of […] clavulanic acid.
Test [15] concerns Streptococcus pneumoniae. The test can be described thus: Antimicrobial activity against quinolone-resistant Streptococcus pneumoniae by agar dilution method in presence of […] clavulanic acid.
The subject of test [16] is Streptococcus pneumoniae. The test can be described thus: Antimicrobial activity against macrolide-susceptible Streptococcus pneumoniae by agar dilution method in presence of […] clavulanic acid.
Test [17] relates to Streptococcus pneumoniae. The test can be described thus: Antimicrobial activity against penicillin-susceptible Streptococcus pneumoniae by agar dilution method in presence of […] clavulanic acid.
The test system of test [18] is Streptococcus pneumoniae. The test can be described thus: Antimicrobial activity against penicillin-resistant Streptococcus pneumoniae by agar dilution method in presence of […] clavulanic acid.
For test [19], the system named is Streptococcus pneumoniae. The test can be described thus: Antimicrobial activity against trimethoprim-sulfamethoxazole-resistant Streptococcus pneumoniae by agar dilution method in presence of […] clavulanic acid.
In test [20] the test system is Streptococcus pneumoniae. Description: Antimicrobial activity against penicillin-intermediate Streptococcus pneumoniae by agar dilution method in presence of […] clavulanic acid.
Test [21] relates to Streptococcus pneumoniae. Description: Antimicrobial activity against trimethoprim-sulfamethoxazole-susceptible Streptococcus pneumoniae by agar dilution method in presence of […] clavulanic acid.
Test [22] has as its system Streptococcus pneumoniae. Description: Antimicrobial activity against quinolone-susceptible Streptococcus pneumoniae by agar dilution method in presence of […] clavulanic acid.

One may read the MIC50 as the lowest concentration that inhibits either 50% of growth or 50% of the strains tested, depending on the study. In general, MIC90 refers to the lowest concentration that inhibits either 90% of growth or 90% of the strains tested, depending on the study. As usually defined, the MIC is the lowest concentration that inhibits growth of the organism.

Molecules are shown by their SMILES. ≈ marks a conversion by molar mass, not a printed value. A value given as a limit tells only on which side of the number the result lay.

For `COc1cc(Cc2cnc(N)nc2N)c2cc(Cc3c(C(=O)N(C)C)[nH]c4ccc(Cl)cc34)oc2c1OC`, the MIC50 stood at 0.25 µg/mL (≈ 0.467 µM) in test [1]; 0.016 µg/mL (≈ 0.0299 µM) in [2]; 0.25 µg/mL (≈ 0.467 µM) in test [3]; 0.06 µg/mL (≈ 0.112 µM) in test [4]; 0.25 µg/mL (≈ 0.467 µM) in test [5]; 0.12 µg/mL (≈ 0.224 µM) in test [6]. Also, the MIC50 in test [7] turned out to be 0.12 µg/mL (≈ 0.224 µM); in [8] it was 0.25 µg/mL (≈ 0.467 µM); in test [10] it was 0.25 µg/mL (≈ 0.467 µM); in [11], 0.06 µg/mL (≈ 0.112 µM); in test [12], 0.06 µg/mL (≈ 0.112 µM). Moreover, the MIC90 was determined as 0.5 µg/mL (≈ 0.935 µM) in [1]; 0.03 µg/mL (≈ 0.0561 µM) in [2]; 1 µg/mL (≈ 1.87 µM) in test [3]; 0.06 µg/mL (≈ 0.112 µM) in [4]; 0.5 µg/mL (≈ 0.935 µM) in [5]; 0.5 µg/mL (≈ 0.935 µM) in test [6]. Also, the MIC90 worked out at 0.5 µg/mL (≈ 0.935 µM) in test [7]; 0.5 µg/mL (≈ 0.935 µM) in [8]; 1 µg/mL (≈ 1.87 µM) in [10]; 0.12 µg/mL (≈ 0.224 µM) in test [11]; 0.25 µg/mL (≈ 0.467 µM) in test [12]. Besides, the Time result in [9] is recorded as “>=1.1 hr”.

For `CC1(C)S[C@@H]2[C@H](NC(=O)[C@H](N)c3ccc(O)cc3)C(=O)N2[C@H]1C(=O)O` [AMOXICILLIN], the MIC in [13] and in test [17] was at most 0.016 µg/mL in each case. Besides, the MIC50 is at most 0.016 µg/mL in test [13]; 0.12 µg/mL in test [14]; 0.5 µg/mL in [15]; 0.06 µg/mL in test [16]; at most 0.016 µg/mL in test [17]; 2 µg/mL in test [18]. Moreover, the MIC50 in test [19] is 0.5 µg/mL; in test [20] it was 0.12 µg/mL; in [21], 0.03 µg/mL; in [22], 0.12 µg/mL. Also, the MIC90 in test [13] is at most 0.016 µg/mL; in [14] it was 4 µg/mL; in test [15], 2 µg/mL; in test [16], 1 µg/mL; in test [17], 0.03 µg/mL; in [18], 4 µg/mL. Further, the MIC90 in [19] was determined as 4 µg/mL; in test [20], 1 µg/mL; in test [21], 0.12 µg/mL; in [22] it was 2 µg/mL.

Take `CC[C@H]1OC(=O)[C@H](C)[C@@H](O[C@H]2C[C@@](C)(OC)[C@@H](O)[C@H](C)O2)[C@H](C)[C@@H](O[C@@H]2O[C@H](C)C[C@H](N(C)C)[C@H]2O)[C@](C)(O)C[C@@H](C)CN(C)[C@H](C)[C@@H](O)[C@]1(C)O` [AZITHROMYCIN]: the MIC50 in test [1] is 0.12 µg/mL (≈ 0.16 µM); in test [2] it was over 64 µg/mL; in test [3], 8 µg/mL (≈ 10.7 µM); in [4], 0.12 µg/mL (≈ 0.16 µM); in [5] it was over 64 µg/mL; in [6] it was 0.12 µg/mL (≈ 0.16 µM). In addition, the MIC50 in test [7] amounted to 4 µg/mL (≈ 5.34 µM); in [8] it was 8 µg/mL (≈ 10.7 µM); in [10], 0.12 µg/mL (≈ 0.16 µM); in test [11] it was 0.12 µg/mL (≈ 0.16 µM); in test [12], 0.12 µg/mL (≈ 0.16 µM). In addition, the MIC90 is over 64 µg/mL in test [1]; over 64 µg/mL in [2]; 0.25 µg/mL (≈ 0.334 µM) in [4]; 0.12 µg/mL (≈ 0.16 µM) in test [6]; over 64 µg/mL in test [7]; over 64 µg/mL in [11]. The compound also yielded an MIC90 in test [12] of over 64 µg/mL.
